Entries after “also recorded” stand apart in the source; their conditions may differ.
What was measured:
[1] = system: Mouse ESC; test: Chromosome counts of ESCs treated with taxol during PA6 co-culture differentiation; format: cell-based; settings: FIG. 3
Excerpt: (§1) A key attribute of HESCs is their ultimate ability to differentiate into normal, mature cells. There is ample evidence that the differentiation of ES cells can be manipulated to give rise to enriched populations of neuronal cells. Stromal PA6 cells, when used as feeders, promote neural differentiation by inducing mouse ES colonies to become Tuj-1-positive and with robust neuritogenesis (Kawasaki et al., 2000). To examine the differentiation potential of anueploid vs. euploid cells, mammalian ESCs were treated with (aneuploid) or without (euploid) taxol and were examined for their ability to differentiate into neurons when cocultured with PA6 cells. Following 1 week of differentiation, 55% of taxol treated cells had gained chromosomes (FIG. 3).
(§2) Mouse ESC were co-cultured with PA6 cells (Kawasaki et al., 2002) for 1 week under differentiation conditions (DMEM/F12 Glutamax (Gibco, Carlsbad, Calif.), 10% “KNOCKOUT” serum replacement (Gibco), 0.1 mM non-essential aminoacids (Gibco) and 0.1 mM β-mercaptoethanol (Gibco). Cells were treated with taxol (Sigma) at a concentration of 2.5 nM.
HESC Chromosome spreads were obtained by standard protocols (Barch et al., 1997; Rehen et al., 2001). […]
For each sample, 40 metaphase spreads were captured and analyzed by SKY and 70 metaphase spreads counterstained with DAPI were captured for aneuploidy quantification.

[2] = system: Mouse ESC; test: Neuronal differentiation of ESCs co-cultured with PA6 cells (tuj1 staining); format: cell-based; settings: taxol 2.5 nM versus without taxol; PA6 co-culture 1 week; FIG. 4
Excerpt: as §1, §2
Immunofluorescence staining was performed as previously described (Gage et al., 1995), using α-β-tubulin-III (Tuj-1; 1/1000, Covance). Secondary antibodies were purchased from Jackson ImmunoResearch.

Structure (SMILES): CC(=O)O[C@H]1C(=O)[C@@]2(C)[C@H]([C@H](OC(=O)c3ccccc3)[C@]3(O)C[C@H](OC(=O)[C@H](O)[C@@H](NC(=O)c4ccccc4)c4ccccc4)C(C)=C1C3(C)C)[C@]1(OC(C)=O)CO[C@@H]1C[C@@H]2O [taxol]
- induction of aneuploidy (chromosome counts) ([1]; ESCs on PA6 cells treated with taxol for 6 days): induces aneuploidy, specifically hyperploidy
- taxol treated cells that had gained chromosomes ([1]; taxol 2.5 nM, following 1 week of differentiation on PA6 cells): 55%
- number of neuronally differentiated colonies (tuj1 staining) / neuronal differentiation potential [2]: significantly reduces neuronal differentiation potential; also recorded: significant decrease
